In patent publication US9573913B2, “Cathepsin cysteine protease inhibitors” (Merck Sharp & Dohme Corp., priority 2013, dated 2017):

What was measured:
human cathepsin F = molecular target: T1, human cathepsin F (Homo sapiens, UniProt Q9UBX1); test: Cathepsin F assay (hCat F); format: biochemical; settings: Z-Phe-Arg-AMC substrate, pH 5.5, 15 min preincubation; read-out: hCat F (IP (nM))
T1 sequence (Q9UBX1 271-484): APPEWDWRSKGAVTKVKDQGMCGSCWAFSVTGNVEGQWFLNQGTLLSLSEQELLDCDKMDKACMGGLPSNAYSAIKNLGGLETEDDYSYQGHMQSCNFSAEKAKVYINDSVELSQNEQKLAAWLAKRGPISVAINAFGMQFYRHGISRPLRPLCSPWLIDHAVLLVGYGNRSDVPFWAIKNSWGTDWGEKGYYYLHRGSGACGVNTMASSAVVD
Method in brief: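 AMC release from Z-Phe-Arg-AMC, added at 8 μM, was monitored fluorometrically (360/460 nm) for 20 min after 10 nM enzyme and compound had been preincubated 15 min at room temperature. Buffer: MES 50 mM pH 5.5, EDTA and DTT 2.5 mM each, 10% DMSO. Compound DMSO dilutions spanned 500–0.025 μM (3-fold). Dose-response fitting gave % inhibition.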

human cathepsin K = human cathepsin K (UniProt P43236); test: Cathepsin K Assay (hrbCat K); format: biochemical; settings: Z-Leu-Arg-AMC substrate, pH 5.5, 15 min preincubation; read-out: hrbCat K (IP (nM))
Method in brief: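 Human cathepsin K (0.4 nM) was preincubated 15 min at room temperature with compound in 50 mM MES pH 5.5, 2.5 mM EDTA, 2.5 mM DTT and 10% DMSO. Inhibition was fitted to a dose-response model.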

SMILES | IC50 (human cathepsin F) | IC50 (human cathepsin K)
N#CC1(NC(=O)[C@@H]2CCCC[C@H]2c2nc(NS(=O)(=O)c3ccccc3)sc2-c2ccc(N3CCS(=O)(=O)CC3)cc2)CC1 [Example 200, (1R,2R)-N-(1-cyanocyclopropyl)-2-(5-(4-(1,1-dioxidothiomorpho-lino)phenyl)-2-(phenylsulfonamido)thiazol-4-yl)cyclohexane-carboxamide] | ≥ 10000 nM | 116 nM
N#CC1(NC(=O)[C@@H]2CCC(Cl)(Cl)C[C@H]2c2nc(-c3ccc(F)cn3)sc2-c2ccc(N3CCS(=O)(=O)CC3)cc2)CC1 [Example 204, (1R,2R)-4,4-dichloro-N-(1-cyanocyclopropyl)-2-(5-(4-(1,1-dioxidothiomorpho-lino)phenyl)-2-(5-fluoropyridin-2-yl)thiazol-4-yl)cyclohexane-carboxamide] | 3330 nM | 88.2 nM
Cc1nc([C@@H]2CC[C@H](F)C[C@H]2C(=O)NC2(C#N)CC2)c(-c2ccc(N3CCS(=O)(=O)CC3)cc2)s1 [Example 205, (1R,2R,5S)-N-(1-cyanocyclopropyl)-2-(5-(4-(1,1-dioxidothiomorpho-lino)phenyl)-2-methylthiazol-4-yl)-5-fluorocyclohexane-carboxamide] | ≥ 10000 nM | 6.4 nM
Cc1nc([C@@H]2CC[C@H](F)C[C@H]2C(=O)N[C@@H](C)C#N)c(-c2ccc(N3CCS(=O)(=O)CC3)cc2)s1 [Example 206, (1R,2R,5S)-N-((S)-1-cyanoethyl)-2-(5-(4-(1,1-dioxidothiomorpho-lino)phenyl)-2-methylthiazol-4-yl)-5-fluorocyclohexane-carboxamide] | 9010 nM | 5 nM
CC(C)(O)c1nc([C@@H]2CCCC[C@H]2C(=O)NC2(C#N)CC2)c(-c2ccc(N3CCS(=O)(=O)CC3)cc2)s1 [Example 208, (1R,2R)-N-(1-cyanocyclopropyl)-2-(5-(4-(1,1-dioxidothiomorpho-lino)phenyl)-2-(2-hydroxypropan-2-yl)thiazol-4-yl)cyclohexane-carboxamide] | ≥ 10000 nM | 7.9 nM
Cc1nc([C@@H]2CC[C@H](F)C[C@H]2C(=O)N[C@H](C#N)C(C)C)c(-c2ccc(N3CCS(=O)(=O)CC3)cc2)s1 [Example 210, (1R,2R,5S)-N-((S)-1-cyano-2-methylpropyl)-2-(5-(4-(1,1-dioxidothiomorpho-lino)phenyl)-2-methylthiazol-4-yl)-5-fluorocyclohexane-carboxamide] | 9900 nM | 11.4 nM
C[C@@H](C#N)NC(=O)[C@@H]1C[C@@H](F)CC[C@H]1c1nc(C2CC(F)(F)C2)sc1-c1ccc(N2CCS(=O)(=O)CC2)cc1 [Example 212, (1R,2R,5S)-N-((S)-1-cyanoethyl)-2-(2-(3,3-difluorocyclobutyl)-5-(4-(1,1-dioxidothiomorpho-lino)phenyl)thiazol-4-yl)-5-fluorocyclohexane-carboxamide] | 6700 nM | 4.2 nM
CC(C)[C@@H](C#N)NC(=O)[C@@H]1C[C@@H](F)CC[C@H]1c1nc(C2CC(F)(F)C2)sc1-c1ccc(N2CCS(=O)(=O)CC2)cc1 [Example 213] | ≥ 10000 nM | 7.8 nM
CC(C)(CO)c1nc([C@@H]2CCCC[C@H]2C(=O)NC2(C#N)CC2)c(-c2ccc(N3CCS(=O)(=O)CC3)cc2)s1 [Example 224, (1R,2R)-N-(1-cyanocyclopropyl)-2-(5-(4-(1,1-dioxidothiomorpho-lino)phenyl)-2-(1-hydroxy-2-methylpropan-2-yl)thiazol-4-yl)cyclohexane-carboxamide] | ≥ 10000 nM | 3.3 nM
Cc1nc([C@@H]2CC[C@H](F)C[C@H]2C(=O)N[C@@H](C)C#N)c(-c2ccc(N3CCOCC3)cc2)s1 [Example 230, (1R,2R,5S)-N-((S)-1-cyanoethyl)-5-fluoro-2-(2-methyl-5-(4-morpholinophenyl)thiazol-4-yl)cyclohexane-carboxamide] | 3330 nM | 45.5 nM
C[C@@H](C#N)NC(=O)[C@@H]1C[C@@H](F)CC[C@H]1c1nc(C2(C(F)(F)F)CC2)sc1-c1ccc(N2CCS(=O)(=O)CC2)cc1 [Example 231, (1R,2R,5S)-N-((S)-1-cyanoethyl)-2-(5-(4-(1,1-dioxidothiomorpho-lino)phenyl)-2-(1-(trifluoromethyl)cyclopropyl)thiazol-4-yl)-5-fluorocyclohexane-carboxamide] | 3140 nM | 2.8 nM

Now those with a lower IC50 (human cathepsin F), led by results:

IC50 (human cathepsin F) | IC50 (human cathepsin K) | SMILES
2930 nM | 1.5 nM | Cc1ccc(-c2nc([C@@H]3CC[C@H](F)C[C@H]3C(=O)N[C@H](C#N)C(C)C)c(-c3ccc(N4CCS(=O)(=O)CC4)cc3)s2)nn1 [Example 217, (1R,2R,5S)-N-((S)-1-cyano-2-methylpropyl)-2-(5-(4-(1,1-dioxidothiomorpho-lino)phenyl)-2-(6-methylpyridazin-3-yl)thiazol-4-yl)-5-fluorocyclohexane-carboxamide]
2570 nM | 1.6 nM | C[C@@H](C#N)NC(=O)[C@@H]1C[C@@H](F)CC[C@H]1c1nc(C(C)(C)C)sc1-c1ccc(N2CCS(=O)(=O)CC2)cc1 [Example 207, (1R,2R,5S)-2-(2-(tert-butyl)-5-(4-(1,1-dioxidothiomorpho-lino)phenyl)thiazol-4-yl)-N-((S)-1-cyanoethyl)-5-fluorocyclohexane-carboxamide]
2480 nM | 7.1 nM | Cc1ccc(-c2nc([C@@H]3CC[C@H](F)C[C@H]3C(=O)NC3(C#N)CC3)c(-c3ccc(N4CCOCC4)cc3)s2)nn1 [Example 216, (1R,2R,5S)-N-(1-cyanocyclopropyl)-5-fluoro-2-(2-(6-methylpyridazin-3-yl)-5-(4-morpholinophenyl)thiazol-4-yl)cyclohexane-carboxamide]
2230 nM | 2.9 nM | Cc1ccc(-c2nc([C@@H]3CC[C@H](F)C[C@H]3C(=O)NC3(C#N)CC3)c(-c3ccc(N4CCC(S(C)(=O)=O)CC4)cc3)s2)nn1 [Example 223, (1R,2R,5S)-N-(1-cyanocyclopropyl)-5-fluoro-2-(2-(6-methylpyridazin-3-yl)-5-(4-(4-(methylsulfonyl)piperidin-1-yl)phenyl)thiazol-4-yl)cyclohexane-carboxamide]
2090 nM | 1.6 nM | C[C@@H](C#N)NC(=O)[C@@H]1C[C@@H](F)CC[C@H]1c1nc(C(F)F)sc1-c1ccc(N2CCS(=O)(=O)CC2)cc1 [Example 220, (1R,2R,5S)-N-((S)-1-cyanoethyl)-2-(2-(difluoromethyl)-5-(4-(1,1-dioxidothiomorpho-lino)phenyl)thiazol-4-yl)-5-fluorocyclohexane-carboxamide]
2050 nM | 6.2 nM | Cc1ccc(-c2nc([C@@H]3CC[C@H](F)C[C@H]3C(=O)NC3(C#N)CC3)c(-c3ccc(N4CCC(C)(O)CC4)cc3)s2)nn1 [Example 222, (1R,2R,5S)-N-(1-cyanocyclopropyl)-5-fluoro-2-(5-(4-(4-hydroxy-4-methylpiperidin-1-yl)phenyl)-2-(6-methylpyridazin-3-yl)thiazol-4-yl)cyclohexane-carboxamide]
1040 nM | 1.6 nM | C[C@@H](C#N)NC(=O)[C@@H]1CCCC[C@H]1c1nc(C(C)(C)CO)sc1-c1ccc(N2CCS(=O)(=O)CC2)cc1 [Example 225, (1R,2R)-N-((S)-1-cyanoethyl)-2-(5-(4-(1,1-dioxidothiomorpho-lino)phenyl)-2-(1-hydroxy-2-methylpropan-2-yl)thiazol-4-yl)cyclohexane-carboxamide]
1020 nM | 4.2 nM | N#CC1(NC(=O)[C@@H]2CCCC[C@H]2c2nc(Oc3ccc(F)cc3F)sc2-c2ccc(N3CCS(=O)(=O)CC3)cc2)CC1 [Example 198, (1R,2R)-N-(1-cyanocyclopropyl)-2-(2-(2,4-difluorophenoxy)-5-(4-(1,1-dioxidothiomorpho-lino)phenyl)thiazol-4-yl)cyclohexane-carboxamide]
1000 nM | 1.5 nM | CC(C)[C@@H](C#N)NC(=O)[C@@H]1C[C@@H](F)CC[C@H]1c1nc(-c2cncc(F)c2)sc1-c1ccc(N2CCS(=O)(=O)CC2)cc1 [Example 209, (1R,2R,5S)-N-((S)-1-cyano-2-methylpropyl)-2-(5-(4-(1,1-dioxidothiomorpho-lino)phenyl)-2-(5-fluoropyridin-3-yl)thiazol-4-yl)-5-fluorocyclohexane-carboxamide]
846 nM | 25.8 nM | CC(C)S(=O)(=O)c1ccc(-c2sc(-c3cncc(F)c3)nc2[C@@H]2CCCC[C@H]2C(=O)NC2(C#N)CC2)cc1 [Example 199, (1R,2R)-N-(1-cyanocyclopropyl)-2-(2-(5-fluoropyridin-3-yl)-5-(4-(isopropylsulfonyl)phenyl)thiazol-4-yl)cyclohexane-carboxamide]
712 nM | 1.2 nM | CN(c1nc([C@@H]2CCCC[C@H]2C(=O)NC2(C#N)CC2)c(-c2ccc(N3CCS(=O)(=O)CC3)cc2)s1)S(=O)(=O)c1ccccc1 [Example 201, (1R,2R)-N-(1-cyanocyclopropyl)-2-(5-(4-(1,1-dioxidothiomorpho-lino)phenyl)-2-(N-methylphenylsulfon-amido)thiazol-4-yl)cyclohexane-carboxamide]
289 nM | 1.7 nM | N#CC1(NC(=O)[C@@H]2CCCC[C@H]2c2nc(-c3ccc(F)cn3)sc2-c2ccc(N3CCS(=O)(=O)CC3)cc2)COC1 [Example 211, (1R,2R)-N-(3-cyanooxetan-3-yl)-2-(5-(4-(1,1-dioxidothiomorpho-lino)phenyl)-2-(5-fluoropyridin-2-yl)thiazol-4-yl)cyclohexane-carboxamide]
